Data published in US6376230B1 (dated 2002).

Structure (SMILES) | melting point
CCCCCCC1=C(O)CCOC1=O | 98 to 99 °C (dec.)
CC1=C(O)CCOC1=O | 138 to 144 °C (dec.)
